# Experimental data taken from patent US20040192759A1, “Use of nefiracetam for treating neurodegeneration” (priority 2004, published 2004).
# Entries after “also recorded” stand apart in the source; their conditions may differ.
# Tests used:
# [1] = test system: post-stroke patients; assay: controlled clinical trial against placebo in post-stroke patients, improvement rating by duration from stroke; assay type: in vivo, human
# Description: The activity of nefiracetam to improve ADL in post-stroke patients has been discovered during a controlled clinical trial against placebo. The compound has been administered orally (450 mg/day, three times daily) to 32 post-stroke patients within six months after the event whilst, concurrently, 27 patients received placebo. The two groups of patients were followed during at least 8 weeks and followed up at the end of week 4 and at the end of week 8 on a symptom scale measuring Activities of Daily Living. […] Among the above 59 patients, 19 received nefiracetam and 10 received placebo within three months after stroke. […] The difference was significant (p=0.035, χ^2 test).
# Further, the action of nefiracetam on the patient who had been treated with nefiracetam early after stroke or later was evaluated.
# [2] = test system: stroke patients; settings: Hirata et al.; cited from earlier work
# [3] = test system: patients after a stroke (cerebral infarction or cerebral hemorrhage); settings: Ohtomo et al., global results; cited from earlier work
# [4] = test system: hippocampal rat embrio neurons; assay: neurite outgrowth in primary cultures of hippocampal neurons; assay type: cell-based
# [5] = test system: rats with cerebral embolism; assay: spatial learning and retention (watermaze) of rats with cerebral embolism; assay type: in vivo, male Wistar rats
# Description: This assumption is confirmed by the effect of nefiracetam on spatial learning and retention in rats with cerebral embolism, treated for 9 days with nefiracetam or vehicle, starting within 24 hours of embolization.
# In male Wistar rats weighing 190-220 g a total of 700 microspheres (48 μm in diameter) were injected into the right common carotid artery of each animal, whereby a quasi-immediate embolism occurs. The embolized animals were randomly divided into 2 groups, each of 13 animals with same neurological deficit, designated as “Control” (embolism plus Vehicle), or “Nefiracetam” (embolism plus nefiracetam 10 mg/kg/day). In addition, a group of 13 “Normal (Sham)” non-embolized animals were used. The administration of nefiracetam or of its vehicle started within the same day of embolization and treatment lasted 9 days. Seven days after embolization, the embolized rats were submitted to a watermaze test, said watermaze being adapted from the Morris water task. The time taken to find the platform (latency) was determined. […] The experiment was carried out in two different sessions. In the first session, at the seventh day embolized rats were submitted to the spatial learning test performed three trials per day for three days (from day 7 to day 9). In the second session, one week after the last day of spatial learning test […], a retention test was performed whereby each rat was given three consecutive trials to learn and remember the location of the platform.
# [6] = test system: cortical rat embrio neurons; assay: neurite outgrowth in primary cultures of cortical neurons; assay type: cell-based; settings: 0.1, 1, 10 and 100 micromoles/l
# [7] = Overall (all durations from stroke)
# [8] = duration from stroke <12 months
# [9] = duration from stroke ≧12 months
compound,measurement,setting,value
"Cc1cccc(C)c1NC(=O)CN1CCCC1=O [nefiracetam, N-(2,6-dimethylphenyl)-2-(2-oxo-1-pyrrolidinyl)acetamide]",improvement on symptom scale measuring Activities of Daily Living (in words),"[1]; 450 mg/day orally, within six months after stroke, 32 patients, weeks 4 and 8",moderate or remarkable improvement
same,"Emotional Disturbance, Improvement Rate (Percent Patients Remarkably or Moderately Improved)",[1]; [7],Overall 22.6%
same,"Global Improvement Rating, Improvement Rate (Percent Patients Remarkably or Moderately Improved)",[1]; [7],Overall 32.3%
same,"Intellectual Dysfunction, Improvement Rate (Percent Patients Remarkably or Moderately Improved)",[1]; [7],Overall 11.9%
same,"Psychiatric Symptoms, Improvement Rate (Percent Patients Remarkably or Moderately Improved)",[1]; [7],Overall 30.8%
same,"Reduced Spontaneity, Improvement Rate (Percent Patients Remarkably or Moderately Improved)",[1]; [7],Overall 23.4%
same,"ADL Improvement, Improvement Rate (Percent Patients Remarkably or Moderately Improved)",[1]; duration from stroke <3 months,41.7%
same,"ADL Improvement, Improvement Rate (patients improved/patients)",[1]; duration from stroke <3 months,5/12
same,"Emotional Disturbance, Improvement Rate (Percent Patients Remarkably or Moderately Improved)",[1]; duration from stroke <3 months,70.6%
same,"Emotional Disturbance, Improvement Rate (patients improved/patients)",[1]; duration from stroke <3 months,12/17
same,"Global Improvement Rating, Improvement Rate (Percent Patients Remarkably or Moderately Improved)",[1]; duration from stroke <3 months,68.4%
same,"Global Improvement Rating, Improvement Rate (patients improved/patients)",[1]; duration from stroke <3 months,13/19
same,"Intellectual Dysfunction, Improvement Rate (Percent Patients Remarkably or Moderately Improved)",[1]; duration from stroke <3 months,43.8%
same,"Intellectual Dysfunction, Improvement Rate (patients improved/patients)",[1]; duration from stroke <3 months,7/16
same,"Psychiatric Symptoms, Improvement Rate (Percent Patients Remarkably or Moderately Improved)",[1]; duration from stroke <3 months,68.4%
same,"Psychiatric Symptoms, Improvement Rate (patients improved/patients)",[1]; duration from stroke <3 months,13/19
same,"Reduced Spontaneity, Improvement Rate (Percent Patients Remarkably or Moderately Improved)",[1]; duration from stroke <3 months,61.1%
same,"Reduced Spontaneity, Improvement Rate (patients improved/patients)",[1]; duration from stroke <3 months,11/18
same,"ADL Improvement, Improvement Rate (Percent Patients Remarkably or Moderately Improved)",[1]; duration from stroke <6 months,21.7%
same,"ADL Improvement, Improvement Rate (patients improved/patients)",[1]; duration from stroke <6 months,5/23
same,"Emotional Disturbance, Improvement Rate (Percent Patients Remarkably or Moderately Improved)",[1]; duration from stroke <6 months,48.3%
same,"Emotional Disturbance, Improvement Rate (patients improved/patients)",[1]; duration from stroke <6 months,14/29
same,"Global Improvement Rating, Improvement Rate (Percent Patients Remarkably or Moderately Improved)",[1]; duration from stroke <6 months,50.0%
same,"Global Improvement Rating, Improvement Rate (patients improved/patients)",[1]; duration from stroke <6 months,16/32
same,"Intellectual Dysfunction, Improvement Rate (Percent Patients Remarkably or Moderately Improved)",[1]; duration from stroke <6 months,29.6%
same,"Intellectual Dysfunction, Improvement Rate (patients improved/patients)",[1]; duration from stroke <6 months,8/27
same,"Psychiatric Symptoms, Improvement Rate (Percent Patients Remarkably or Moderately Improved)",[1]; duration from stroke <6 months,50.0%
same,"Psychiatric Symptoms, Improvement Rate (patients improved/patients)",[1]; duration from stroke <6 months,16/32
same,"Reduced Spontaneity, Improvement Rate (Percent Patients Remarkably or Moderately Improved)",[1]; duration from stroke <6 months,46.7%
same,"Reduced Spontaneity, Improvement Rate (patients improved/patients)",[1]; duration from stroke <6 months,14/30
same,"ADL Improvement, Improvement Rate (Percent Patients Remarkably or Moderately Improved)",[1]; [8],14.3%
same,"ADL Improvement, Improvement Rate (patients improved/patients)",[1]; [8],5/35
same,"Emotional Disturbance, Improvement Rate (Percent Patients Remarkably or Moderately Improved)",[1]; [8],48.8%
same,"Emotional Disturbance, Improvement Rate (patients improved/patients)",[1]; [8],21/43
same,"Global Improvement Rating, Improvement Rate (Percent Patients Remarkably or Moderately Improved)",[1]; [8],50.0%
same,"Global Improvement Rating, Improvement Rate (patients improved/patients)",[1]; [8],24/48
same,"Intellectual Dysfunction, Improvement Rate (Percent Patients Remarkably or Moderately Improved)",[1]; [8],23.1%
same,"Intellectual Dysfunction, Improvement Rate (patients improved/patients)",[1]; [8],9/39
same,"Psychiatric Symptoms, Improvement Rate (Percent Patients Remarkably or Moderately Improved)",[1]; [8],50.0%
same,"Psychiatric Symptoms, Improvement Rate (patients improved/patients)",[1]; [8],24/48
same,"Reduced Spontaneity, Improvement Rate (Percent Patients Remarkably or Moderately Improved)",[1]; [8],46.7%
same,"Reduced Spontaneity, Improvement Rate (patients improved/patients)",[1]; [8],21/45
same,"ADL Improvement, Improvement Rate (Percent Patients Remarkably or Moderately Improved)",[1]; duration from stroke ≧3 months,1.2%
same,"ADL Improvement, Improvement Rate (patients improved/patients)",[1]; duration from stroke ≧3 months,1/81
same,"ADL Improvement, Improvement Rate (Percent Patients Remarkably or Moderately Improved)",[1]; duration from stroke ≧6 months,1.4%
same,"ADL Improvement, Improvement Rate (patients improved/patients)",[1]; duration from stroke ≧6 months,1/70
same,"Emotional Disturbance, Improvement Rate (Percent Patients Remarkably or Moderately Improved)",[1]; duration from stroke ≧6 months,14.7%
same,"Emotional Disturbance, Improvement Rate (patients improved/patients)",[1]; duration from stroke ≧6 months,14/95
same,"Global Improvement Rating, Improvement Rate (Percent Patients Remarkably or Moderately Improved)",[1]; duration from stroke ≧6 months,26.5%
same,"Global Improvement Rating, Improvement Rate (patients improved/patients)",[1]; duration from stroke ≧6 months,26/98
same,"Intellectual Dysfunction, Improvement Rate (Percent Patients Remarkably or Moderately Improved)",[1]; duration from stroke ≧6 months,6.1%
same,"Intellectual Dysfunction, Improvement Rate (patients improved/patients)",[1]; duration from stroke ≧6 months,5/82
same,"Psychiatric Symptoms, Improvement Rate (Percent Patients Remarkably or Moderately Improved)",[1]; duration from stroke ≧6 months,24.5%
same,"Psychiatric Symptoms, Improvement Rate (patients improved/patients)",[1]; duration from stroke ≧6 months,24/98
same,"Reduced Spontaneity, Improvement Rate (Percent Patients Remarkably or Moderately Improved)",[1]; duration from stroke ≧6 months,16.0%
same,"Reduced Spontaneity, Improvement Rate (patients improved/patients)",[1]; duration from stroke ≧6 months,15/94
same,"ADL Improvement, Improvement Rate (Percent Patients Remarkably or Moderately Improved)",[1]; [9],1.7%
same,"ADL Improvement, Improvement Rate (patients improved/patients)",[1]; [9],1/58
same,"Emotional Disturbance, Improvement Rate (Percent Patients Remarkably or Moderately Improved)",[1]; [9],8.6%
same,"Emotional Disturbance, Improvement Rate (patients improved/patients)",[1]; [9],7/81
same,"Global Improvement Rating, Improvement Rate (Percent Patients Remarkably or Moderately Improved)",[1]; [9],22.0%
same,"Global Improvement Rating, Improvement Rate (patients improved/patients)",[1]; [9],18/82
same,"Intellectual Dysfunction, Improvement Rate (Percent Patients Remarkably or Moderately Improved)",[1]; [9],5.7%
same,"Intellectual Dysfunction, Improvement Rate (patients improved/patients)",[1]; [9],4/70
same,"Psychiatric Symptoms, Improvement Rate (Percent Patients Remarkably or Moderately Improved)",[1]; [9],19.5%
same,"Psychiatric Symptoms, Improvement Rate (patients improved/patients)",[1]; [9],16/82
same,"Reduced Spontaneity, Improvement Rate (Percent Patients Remarkably or Moderately Improved)",[1]; [9],10.1%
same,"Reduced Spontaneity, Improvement Rate (patients improved/patients)",[1]; [9],8/79
same,incontinence of urines,[1]; early treatment after stroke,tends to improve
same,neurological signs,[1]; early treatment after stroke,tends to improve
same,improvement of mental function tests,[2],not significant
same,"activities of daily living, nefiracetam vs placebo",[3],no significant difference between the two groups
same,psychiatric symptoms,[3],improves the psychiatric symptoms
same,neurotrophic effect (neurite outgrowth),"[4]; 0.1, 1, 10 and 100 micromoles/l",significantly increasing neurite outgrowth
same,neurite outgrowth effect in combination with bFGF,[4]; with bFGF,potentiated by bFGF
same,"Number of rats which failed to find the platform within 180 Sec., Spatial learning test","[5]; Day 7, 10 mg/kg/day, of 13 rats",8
same,"Latency to reach the platform, Spatial learning test","[5]; Day 7 after embolization, 10 mg/kg/day for 9 days, n 13",147.6 ± 14.1 s
same,"Number of rats which failed to find the platform within 180 Sec., Spatial learning test","[5]; Day 8, 10 mg/kg/day, of 13 rats",2
same,"Latency to reach the platform, Spatial learning test","[5]; Day 8 after embolization, 10 mg/kg/day for 9 days, n 13",83.7 ± 17.4 s
same,"Number of rats which failed to find the platform within 180 Sec., Spatial learning test","[5]; Day 9, 10 mg/kg/day, of 13 rats",2
same,"Latency to reach the platform, Spatial learning test","[5]; Day 9 after embolization, 10 mg/kg/day for 9 days, n 13",93.1 ± 16.2 s
same,"Number of rats which failed to find the platform within 180 Sec., Retention test","[5]; Day 17, 10 mg/kg/day, of 13 rats",2
same,"Latency to reach the platform, Retention test","[5]; Day 17 after embolization (after washout), 10 mg/kg/day for 9 days, n 13",72.2 ± 17.0 s
same,effect in retention test vs vehicle (in words),"[5]; day 17 after embolization, after washout",maintained even after washout; also recorded: remakable difference
same,learning ability in place-learning watermaze task vs vehicle (in words),[5]; days 7 to 9 after embolization,clear difference between nefiracetam and vehicle-treated animals
same,neurotrophic effect (neurite outgrowth),[6],significantly increasing neurite outgrowth
